Measurements reported in patent US20250325552A1, “SUBSTITUTED THIADIAZOLYL DERIVATIVES AS DNA POLYMERASE THETA INHIBITORS” (IDEAYA Biosciences, Inc., priority 2020, published 2025).

Each compound was assayed against Polθ theta (1-899) (hPolQ) (Homo sapiens (Human), UniProt O75417) (assay: Biological Assay 1: Polθ ATPase activity, NADH oxidation-coupled enzymatic assay (10 nM enzyme, 30 min)). Conditions: Polθ (1-899) 10 nM, 100 μM ATP, 300 nM dT50 ssDNA; Examples 1 to 268; read-out: ATPase NADH coupling:Standard Screening:hPolQ IC50.
Format: biochemical
Procedure: The ability of the compounds of Formula (I), (II), (III), (IV), or Table 1 (Examples 1 to Example 268) to inhibit ATPase activity of Polθ theta (1-899) was determined using the assay described below.
Polθ Theta ATPase activity was determined by measuring the rate of ATP turn over in a NADH oxidation-coupled enzymatic assay. 10-point dilution series of compounds were used in a 384 well format for the inhibition assays. Polθ theta (1-899) (10 nM) in assay buffer (20 mM Tris HCl (pH 7.80), 80 mM KCl, 10 mM MgCl2, 1 mM DTT, 0.01% BSA, 0.01% Tween, 5% glycerol) was transferred to the test wells (20 μL), except the low control wells (20 μL of assay buffer was added to the low control wells). The plate was then incubated at room temperature for 15 min. An equal volume (20 μL) of 100 μM ATP, 300 nM dT50 (single-stranded DNA (ssDNA) containing 50 thymine bases), 300 μM NADH, 6 mM PEP, 10 U/mL lactate dehydrogenase and U/mL pyruvate kinase in assay buffer was added to all the test wells. The plate was then centrifuged at 1000 rpm for 1 min. The reaction was monitored for 30 min by measuring absorbance (λ=340 nm) in a Tecan Spark multimode plate reader every minute. The high control (DMSO with enzyme) with low absorbance intensity represents no inhibition of ATPase reaction while the low control (DMSO with buffer) with high absorbance intensity represents full inhibition of ATPase activity. Slope of the reaction progress curves were used to calculate the rate of ATP hydrolysis. The rates were used to determine the percent inhibition using a four-parameter inhibition model to generate IC50, Hill slope and max inhibition.

Sequence of Polθ theta (1-899) (hPolQ) (O75417 1-899): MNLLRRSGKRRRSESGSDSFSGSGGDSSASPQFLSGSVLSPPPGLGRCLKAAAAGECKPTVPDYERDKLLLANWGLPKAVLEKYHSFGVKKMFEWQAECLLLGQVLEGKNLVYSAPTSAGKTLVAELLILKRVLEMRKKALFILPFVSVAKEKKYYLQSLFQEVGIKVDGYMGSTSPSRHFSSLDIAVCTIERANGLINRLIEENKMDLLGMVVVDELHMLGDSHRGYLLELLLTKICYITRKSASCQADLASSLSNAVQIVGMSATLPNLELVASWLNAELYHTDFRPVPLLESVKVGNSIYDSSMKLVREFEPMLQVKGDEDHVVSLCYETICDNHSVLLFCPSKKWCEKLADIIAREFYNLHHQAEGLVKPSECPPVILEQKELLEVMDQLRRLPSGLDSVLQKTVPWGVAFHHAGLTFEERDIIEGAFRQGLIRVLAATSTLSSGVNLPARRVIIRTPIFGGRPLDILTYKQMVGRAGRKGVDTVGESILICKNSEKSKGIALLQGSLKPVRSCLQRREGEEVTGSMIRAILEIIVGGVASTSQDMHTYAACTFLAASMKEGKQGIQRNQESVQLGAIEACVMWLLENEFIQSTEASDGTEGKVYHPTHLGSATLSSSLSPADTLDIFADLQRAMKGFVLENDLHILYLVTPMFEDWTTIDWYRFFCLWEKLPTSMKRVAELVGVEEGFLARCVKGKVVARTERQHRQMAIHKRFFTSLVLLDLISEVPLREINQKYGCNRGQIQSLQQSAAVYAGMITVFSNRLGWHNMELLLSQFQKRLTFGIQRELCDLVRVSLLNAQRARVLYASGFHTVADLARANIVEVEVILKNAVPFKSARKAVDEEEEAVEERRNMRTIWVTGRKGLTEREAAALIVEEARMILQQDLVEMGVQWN

IC50 [nM]	Compound
≤ 200	COc1cnc(Cl)cc1-c1cc(C)ncc1C(=O)Nc1nnc(OCc2ccc3c(n2)OCCO3)s1 [Example 51, 2′-chloro-N-(5-((2,3-dihydro-[1,4]dioxino[2,3-b]pyridin-6-yl)methoxy)-1,3,4-thiadiazol-2-yl)-5′-methoxy-6-methyl-[4,4′-bipyridine]-3-carboxamide]
≤ 200	COC(C)(C)c1ccc(COc2nnc(NC(=O)c3cnc(C)cc3-c3c(F)cccc3OC(F)F)s2)nc1 [Example 124, 4-(2-(difluoromethoxy)-6-fluorophenyl)-N-(5-((5-(2-methoxypropan-2-yl)pyridin-2-yl)methoxy)-1,3,4-thiadiazol-2-yl)-6-methylpyridine-3-carboxamide]
≤ 200	COc1cnc(Cl)cc1-c1cc(C)ncc1C(=O)Nc1nnc(OCC2(C)CCOC2)s1 (stereo not drawn) [Example 131, 2′-chloro-5′-methoxy-6-methyl-N-(5-((3-methyloxolan-3-yl)methoxy)-1,3,4-thiadiazol-2-yl)-(4,4′-bipyridine)-3-carboxamide]
≤ 200	COc1cnc(Cl)cc1-c1cc(C)ncc1C(=O)Nc1nnc(OC[C@@H]2CCO[C@H]2C)s1 (single isomer, unassigned) [Example 180]
≤ 200	COc1cccc(F)c1-c1cc(C)ncc1C(=O)Nc1nnc(OCc2cnc(CO)cn2)s1 [Example 97, 4-(2-fluoro-6-methoxyphenyl)-N-(5-((5-(hydroxymethyl)pyrazin-2-yl)methoxy)-1,3,4-thiadiazol-2-yl)-6-methylnicotinamide]
≤ 200	COc1cnc(Cl)cc1-c1cc(C)ncc1C(=O)Nc1nnc(OCC2(C#N)CC2)s1 [Example 205, 2′-chloro-N-(5-((1-cyanocyclopropyl)methoxy)-1,3,4-thiadiazol-2-yl)-5′-methoxy-6-methyl-(4,4′-bipyridine)-3-carboxamide]
≤ 200	COc1cnc(C)c(F)c1-c1cc(C)ncc1C(=O)Nc1nnc(OCC23CCC(O)(CC2)CC3)s1 [Example 219, 3′-fluoro-N-(5-((4-hydroxybicyclo(2.2.2)octan-1-yl)methoxy)-1,3,4-thiadiazol-2-yl)-5′-methoxy-2′,6-dimethyl-(4,4′-bipyridine)-3-carboxamide]
≤ 200	CN=[S@@](C)(=O)c1ccc(COc2nnc(NC(=O)c3cnc(C)cc3-c3c(F)cccc3OC)s2)cc1 [Example 155, N-(5-((4-((S)—N,S-dimethylsulfonimidoyl)benzyl)oxy)-1,3,4-thiadiazol-2-yl)-4-(2-fluoro-6-methoxyphenyl)-6-methylnicotinamide]
≤ 200	COc1cnc(C)c(F)c1-c1cc(C)ncc1C(=O)Nc1nnc(OC[C@H]2COCCO2)s1 [Example 242, N-(5-(((R)-1,4-dioxan-2-yl)methoxy)-1,3,4-thiadiazol-2-yl)-3′-fluoro-5′-methoxy-2′,6-dimethyl-(4,4′-bipyridine)-3-carboxamide]
≤ 200	COc1cnc(Cl)cc1-c1cc(C)ncc1C(=O)Nc1nnc(OCc2ccc(C(C)(C)C#N)cn2)s1 [Example 84, 2′-chloro-N-(5-((5-(2-cyanopropan-2-yl)pyridin-2-yl)methoxy)-1,3,4-thiadiazol-2-yl)-5′-methoxy-6-methyl-(4,4′-bipyridine)-3-carboxamide]
≤ 200	COc1cnc(Cl)c(F)c1-c1cc(C)ncc1C(=O)Nc1nnc(OC[C@H]2COCCO2)s1 [Example 240, N-(5-(((R)-1,4-dioxan-2-yl)methoxy)-1,3,4-thiadiazol-2-yl)-2′-chloro-3′-fluoro-5′-methoxy-6-methyl-(4,4′-bipyridine)-3-carboxamide]
≤ 200	COc1cccc(F)c1-c1cc(C)ncc1C(=O)Nc1nnc(OCc2ccc([S@@](C)(=N)=O)cn2)s1 [Example 150, 4-(2-fluoro-6-methoxyphenyl)-6-methyl-N-(5-((5-((S)—S-methylsulfonimidoyl)pyridin-2-yl)methoxy)-1,3,4-thiadiazol-2-yl)nicotinamide]
200 to 500	COCc1cccc(COc2nnc(NC(=O)c3cnc(C)cc3-c3ccccc3OC)s2)n1 [Example 26, N-(5-((6-(methoxymethyl)pyridin-2-yl)methoxy)-1,3,4-thiadiazol-2-yl)-4-(2-methoxyphenyl)-6-methylnicotinamide]
1000 to 10000	COc1ccccc1-c1cc(C)ncc1C(=O)Nc1nnc(O[C@@H](CO)c2ccc(Cl)cn2)s1 [Example 29, (R)—N-(5-(1-(5-chloropyridin-2-yl)-2-hydroxyethoxy)-1,3,4-thiadiazol-2-yl)-4-(2-methoxyphenyl)-6-methylnicotinamide]
≤ 200	Cc1cc(-c2c(F)cccc2OC(F)F)c(C(=O)Nc2nnc(OCc3ccc4c(n3)OCCO4)s2)cn1 [Example 47, 4-(2-(difluoromethoxy)-6-fluorophenyl)-N-(5-((2,3-dihydro-(1,4)dioxino(2,3-b)pyridin-6-yl)methoxy)-1,3,4-thiadiazol-2-yl)-6-methylnicotinamide]
≤ 200	COc1cnc(Cl)cc1-c1cc(C)ncc1C(=O)Nc1nnc(OC[C@@H]2COC[C@H]2C)s1 (single isomer, unassigned) [Example 266]
≤ 200	COc1cnc(Cl)cc1-c1cc(C)ncc1C(=O)Nc1nnc(OC[C@H]2CC[C@H](O)C2)s1 (single isomer, unassigned) [Example 208]
≤ 200	COc1cccc(F)c1-c1cc(C)ncc1C(=O)Nc1nnc(OCc2ccc(CC3COC3)cn2)s1 [Example 54, 4-(2-fluoro-6-methoxyphenyl)-6-methyl-N-(5-((5-(oxetan-3-ylmethyl)pyridin-2-yl)methoxy)-1,3,4-thiadiazol-2-yl)nicotinamide]
≤ 200	COc1cnc(Cl)cc1-c1cc(C)ncc1C(=O)Nc1nnc(OCC2COC3(COC3)C2)s1 (stereo not drawn) [Example 225, N-(5-((2,5-dioxaspiro(3.4)octan-7-yl)methoxy)-1,3,4-thiadiazol-2-yl)-2′-chloro-5′-methoxy-6-methyl-(4,4′-bipyridine)-3-carboxamide]
≤ 200	COc1cnc(Cl)cc1-c1cc(C)ncc1C(=O)Nc1nnc(OCC2COC3(CCC3)C2)s1 (stereo not drawn) [Example 224, N-(5-((5-oxaspiro(3.4)octan-7-yl)methoxy)-1,3,4-thiadiazol-2-yl)-2′-chloro-5′-methoxy-6-methyl-(4,4′-bipyridine)-3-carboxamide]
≤ 200	COc1cccc(F)c1-c1cc(C)ncc1C(=O)Nc1nnc(OCc2ccc3c(n2)CCCC3O)s1 (racemic) [Example 92, 4-(2-fluoro-6-methoxyphenyl)-N-(5-((5-hydroxy-5,6,7,8-tetrahydroquinolin-2-yl)methoxy)-1,3,4-thiadiazol-2-yl)-6-methylnicotinamide]
200 to 500	COc1ccccc1-c1cc(C)ncc1C(=O)Nc1nnc(OCc2cc(CO)ccn2)s1 [Example 42, N-(5-((4-(hydroxymethyl)pyridin-2-yl)methoxy)-1,3,4-thiadiazol-2-yl)-4-(2-methoxyphenyl)-6-methylpyridine-3-carboxamide]
≤ 200	COc1cnc(Cl)cc1-c1cc(C)ncc1C(=O)Nc1nnc(OCc2ccc(CO)cn2)s1 [Example 60, 2′-chloro-N-(5-((5-(hydroxymethyl)pyridin-2-yl)methoxy)-1,3,4-thiadiazol-2-yl)-5′-methoxy-6-methyl-[4,4′-bipyridine]-3-carboxamide]
1000 to 10000	Cc1cc(C2CCOCC2)c(C(=O)Nc2nnc(OCc3ccc(Cl)cn3)s2)cn1 [Example 18, N-(5-((5-chloropyridin-2-yl)methoxy)-1,3,4-thiadiazol-2-yl)-6-methyl-4-(tetrahydro-2H-pyran-4-yl)nicotinamide]
